What was measured:
Emesis in the dog = Emesis in the dog (apomorphine-induced retching and vomiting); assay type: in vivo; details: dose of 0.32 mg/kg i.v., 5 min before subcutaneous apomorphine (0.1 mg/0.5 ml/kg), observed for 60 min
Procedure: Individually housed adult female dogs (8 to 15 kg) were given an i.v. injection of a solution containing a test compound. 5 Min later the emetic responses (retching and vomiting) were induced by administration of subcutaneous apomorphine (0.1 mg/0.5 ml/kg) and observed for the next 60 min. The timing and number of retches and vomits observed were recorded for each animal. An individual animal was tested with at least 10 days between experiments.

| melting point | SMILES | inhibition rate of emesis in the dog (Emesis in the dog) |
| --- | --- | --- |
| 180 to 190 °C | Cc1ccc(CC2CN(CC#Cc3cccnc3)CCN2C(=O)c2cc(C(F)(F)F)cc(C(F)(F)F)c2)cc1O.Cl.Cl (centres unmarked) [Example 7, 1-[3,5-bis(trifluoromethyl)benzoyl]-2-(3-hydroxy-4-methylbenzyl)-4-[3-(3-pyridyl)-2-propynyl]piperazine dihydrochloride] | – |
| 60 to 70 °C | Cc1ccc(CC2CN(CCCc3cccnc3)CCN2C(=O)c2cc(C(F)(F)F)cc(C(F)(F)F)c2)cc1O.Cl.Cl (centres unmarked) [Example 8, 1-[3,5-bis(trifluoromethyl)benzoyl]-2-(3-hydroxy-4-methylbenzyl)-4-[3-(3-pyridyl)propyl]piperazine dihydrochloride] | – |
| 142 to 143 °C | O=C(c1cc(C(F)(F)F)cc(C(F)(F)F)c1)N1CCN(CC#Cc2cccnc2)C[C@H]1Cc1ccc(C(F)(F)F)cc1 [Example 9-(53), (2R)-1-[3,5-Bis(trifluoromethyl)benzoyl]-4-[3-(3-pyridyl)-2-propynyl]-2-[4-(trifluoromethyl)benzyl]-piperazine] | – |
| 206 to 224.5 °C | COC[C@@H]1CN(CCN2CCN(C(=O)c3cc(C(F)(F)F)cc(C(F)(F)F)c3)[C@H](Cc3ccc(C)c(O)c3)C2)CCO1.Cl.Cl [Example 13] | – |

Second part, the molecule before the results:

| SMILES | melting point | inhibition rate of emesis in the dog (Emesis in the dog) |
| --- | --- | --- |
| Cc1ccc(CC2CN(CCN3C[C@@H](C)O[C@@H](C)C3)CCN2C(=O)c2cc(C(F)(F)F)cc(C(F)(F)F)c2)cc1O.Cl.Cl (relative stereo) [Example 4-(1), 1-[3,5-Bis(trifluoromethyl)benzoyl]-4-[2-(cis-2,6-dimethylmorpholino)ethyl]-2-(3-hydroxy-4-methylbenzyl)piperazine dihydrochloride] | 188 to 200 °C | 100% |
| COC[C@@H]1CN(CCN2CCN(C(=O)c3cc(C(F)(F)F)cc(C(F)(F)F)c3)C(Cc3ccc(C)c(O)c3)C2)[C@@H](C)CO1.Cl.Cl (stereo partly drawn) [4-(2), 1-[3,5-Bis(trifluoromethyl)benzoyl]-2-(3-hydroxy-4-methylbenzyl)-4-[2-[(2S,5S)-2-methoxymethyl-5-methylmorpholino]ethyl]piperazine dihydrochloride] | 214 to 218 °C | – |
| COC[C@@H]1CN(CCN2CCN(C(=O)c3cc(C(F)(F)F)cc(C(F)(F)F)c3)[C@H](Cc3ccc(C)c(O)c3)C2)CCO1.Cl.Cl [Example 5-(1)] | 207 to 210 °C | – |

Source: patent US7166598B2, “Piperazine derivatives” (Astellas Pharma Inc., priority 1998, dated 2007)
